“Also recorded” adds a separate entry of the source. Like-named read-outs stand apart in the source and are kept apart here.
How the values were obtained:
[1] = system: ovine blood; assay: Methaemoglobin analysis in ovine blood; design: species or system sheep; conditions: for methaemoglobin formation: in vitro ovine blood model, 1 h incubation
Procedure: Defibrinated Oxoid sheep’s blood (ThermoScientific) was diluted to a 5% v/v suspension in PBS pH 7.4. In a 96-well microtitre plate, 150 µl of blood suspension was added to 50 µl of serially diluted compound in PBS containing a 4× stock of each compound of interest. Serial dilution of compounds from DMSO stocks into PBS was performed to achieve an in-plate DMSO concentration of 0.1%. PBS buffer alone was used as a negative control. The plate was incubated for the specified time at 37 °C. The plate was then centrifuged at 3,500 r.p.m. for 5 min. The supernatant was removed and cells lysed by resuspension in 100 µl of a solution of Triton-X-100 (1%) in PBS. Following this, 80 µl of lysed cell contents were transferred to a second microtitre plate for ultraviolet measurement. Ultraviolet absorbance was measured immediately at 630 nm (MiniMax i3x Imager, Molecular Devices). Methaemoglobin increase was determined by A630−A6300/A6300×100 , where A630 is the absorbance of the test well at 630 nm, and A6300 is the absorbance of the negative control at 630 nm.

[2] = biological target: T1, recombinant human 5-LO (Homo sapiens, UniProt P09917); assay: Cell-free activity assay for recombinant human 5-LO; type: biochemical
T1 construct: made in house; host or cells: Escherichia coli BL21
T1 sequence (P09917 1-674): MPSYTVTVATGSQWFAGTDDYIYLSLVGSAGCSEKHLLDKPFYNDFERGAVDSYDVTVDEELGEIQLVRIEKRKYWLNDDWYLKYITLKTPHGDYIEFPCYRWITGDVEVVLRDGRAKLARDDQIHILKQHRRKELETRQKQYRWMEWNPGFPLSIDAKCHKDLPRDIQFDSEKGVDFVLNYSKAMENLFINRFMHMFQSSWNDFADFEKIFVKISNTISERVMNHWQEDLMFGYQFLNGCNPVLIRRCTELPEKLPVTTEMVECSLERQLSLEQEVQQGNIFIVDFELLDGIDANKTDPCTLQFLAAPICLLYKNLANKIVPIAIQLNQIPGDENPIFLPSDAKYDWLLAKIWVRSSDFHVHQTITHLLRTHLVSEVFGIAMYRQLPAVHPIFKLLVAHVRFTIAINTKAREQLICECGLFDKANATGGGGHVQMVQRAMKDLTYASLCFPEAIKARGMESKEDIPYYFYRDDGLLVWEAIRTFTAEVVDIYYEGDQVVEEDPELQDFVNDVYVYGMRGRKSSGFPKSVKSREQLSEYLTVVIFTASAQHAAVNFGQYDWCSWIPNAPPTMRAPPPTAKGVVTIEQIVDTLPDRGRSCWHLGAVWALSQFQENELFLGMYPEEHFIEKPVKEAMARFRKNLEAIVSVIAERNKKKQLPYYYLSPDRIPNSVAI
Procedure: Escherichia coli (BL21) was transformed with pT3-5-LO plasmid, and recombinant 5-LO protein was expressed at 30 °C as described. Cells were lysed in 50 mM triethanolamine/HCl pH 8.0, 5 mM EDTA, 1 mM phenylmethanesulfonyl fluoride, soybean trypsin inhibitor (60 μg ml^−1) and lysozyme (1 mg ml^−1), homogenized by sonication (3 × 15 s) and centrifuged at 40,000g for 20 min at 4 °C. The 40,000g supernatant (S40) was applied to an ATP–agarose column to partially purify 5-LO as described. Aliquots of semipurified 5-LO (0.5 μg) were diluted with 1 ml ice-cold PBS containing 1 mM EDTA. Samples were preincubated with the test compound or vehicle (0.1% DMSO) with or without 1 mM DTT, as indicated. After 10 min at 4 °C, samples were prewarmed for 30 s at 37 °C, and 2 mM CaCl2 plus 20 μM arachidonic acid was added to start the formation of 5-LO products. After 10 min, the reaction was stopped by addition of 1 volume of ice-cold methanol, and the formed 5-LO products were analysed by reverse-phase HPLC as described. 5-LO products include the all-trans isomers of LTB4 (trLTB4 isomers) and 5(S)-hydroperoxy-6-trans-8,11,14-cis-eicosatetraenoic acid and its corresponding alcohol 5(S)-hydroxy-6-trans-8,11,14-cis-eicosatetraenoic acid.

[3] = In vitro redox-cycling phenol red/horseradish peroxidase reporter assay; conditions: phenol red/HRP with DTT
Procedure: The in vitro redox-cycling capability of compounds was assessed by phenol red/horseradish peroxidase (HRP) assay by adaption of a previously described protocol. Briefly, stocks were prepared as follows: (1) DTT to a concentration of […] in PBS pH 7.4 buffer; (2) compound stocks in PBS pH 7.4 buffer to 3× the desired concentration by 1,000× dilution of DMSO stocks; (3) a stock of phenol red/HRP detection reagent containing 300 µg ml^−1 phenol red and 180 µg ml^−1 HRP enzyme in PBS pH 7.4 buffer; (4) a stock of 1 M NaOH in water; (5) a stock of 100 µM H2O2 in PBS prepared by addition of a 30% solution of H2O2 in water into 1,000 µl of PBS. Into each well of a 96-well clear flat-bottomed plate was then added 40 µl of compound stock in PBS followed by 40 µl of DTT stock, followed immediately by 40 µl of phenol red/HRP reagent. A positive control with 100 µM H2O2 added in place of compound was included. The plate was incubated in the dark at room temperature for 15 min. Following this, 20 µl of 1 M NaOH was added to each well to terminate the reaction. Absorbance was immediately measured at 610 nm (MiniMax i3x Imager, Molecular Devices). Absorbance of treated wells was normalized to control wells treated with PBS only (zero redox cycling).

[4] = system: AML cell line HL-60; assay: N-Acetyl cysteine cytotoxicity assay (trypan blue exclusion); type: cell-based; conditions: Homo sapiens, 96 h
Procedure: For assays involving cytotoxicity of β-lapachone derivatives with and without antioxidant N-acetyl cysteine, HL-60 cells were plated into 24-well plates at a concentration of 2.5 × 10^5 cells ml^−1 in 450 µl. To each well was then added 25 µl of drug diluted in PBS to obtain the correct in-plate drug concentration, and 25 µl of PBS or a stock of N-acetyl cysteine at 12 mM in PBS. DMSO was maintained at an in-plate concentration of 0.1%. After 96 h incubation, toxicity was assessed by counting of live cells using the trypan blue exclusion method with a Countess II Automated Cell Counter (ThermoFisher Scientific) according to the manufacturer’s instructions. Cell viability was determined by dividing the average live cell number of treated wells by the average live cell number for control wells treated with 0.1% DMSO. Viability for wells treated with N-acetyl cysteine was assessed by comparison with control wells treated with N-acetyl cysteine and 0.1% DMSO. IC50 values were calculated using GraphPad Prism 8 software.

[5] = without DTT, read-out: IC50, 5-LO inhibition without DTT
[6] = with ROS quencher NAC (600 µM), read-out: IC50, toxicity to HL-60 with NAC
[7] = without NAC, read-out: IC50, toxicity to HL-60 without NAC

| IC50 ([2]; with DTT (1 mM), read-out: IC50, 5-LO inhibition with DTT) [µM] | SMILES | methaemoglobin formation [1] | IC50 [2, 5] [µM] | in vitro redox activity ([3]; up to 25 μM) | IC50 [4, 6] [µM] | IC50 [4, 7] [µM] | lowest dose concentration with detectable methaemoglobin formation ([1]; after 1 h of incubation) [µM] | concentration above which redox activity saturates the assay [3] |
| --- | --- | --- | --- | --- | --- | --- | --- | --- |
| 10.4 ± 4.1 | CC1(C)CCC2=C(O1)c1ccccc1C(O)(Cc1ccccc1)C2=O (stereo not drawn) [Compound 24, benzyl β-lapa-ketol] | did not occur | 8 ± 2.5 | non-redox active; also recorded: no measurable redox activity | 10.5 ± 0.9 | 13.6 ± 1.3 | – | – |
| – | CC1(C)CCC2=C(O1)c1ccccc1C(=O)C2=O [Compound 1, β-lapachone, reference compound] | dose-dependent methaemoglobin formation | > 30 | – | 1.18 ± 0.18 | 0.47 ± 0.26 | 10 | above 10 μM |

Reference: article PMC9252919, “Controlled masking and targeted release of redox-cycling ortho-quinones via a C–C bond-cleaving 1,6-elimination” (Nature Chemistry, 2022)
